The subject of data set [1] is non-small cell lung cancer (NSCLC).
Description: A significant clinical response was defined either as a partial response using RECIST criteria for patients with measurable disease, or for patients whose tumor burden could not be quantified using these criteria, an evaluable response was assessed by two physicians.
Data set [2] shares this test system. The settings on record: cited from earlier work.
Data set [3] deals with Lung cancer cells harboring EGFR mutations vs cells with wild-type receptor. The experiment in a line: Apoptosis / cell viability (MTT) assay with increasing drug concentrations. The class given is cell-based, human. The note with it: compared with cells expressing only wild-type EGFR. As for the experimental part:
10,000 cells were seeded into individual wells of a 96-well plate. […] After 96 hours, the viability of cells was determined using the MTT assay. For caspase immunostaining, 10,000 cells were seeded onto 10 mm coverslips. The next day they were transfected with siRNA (see previous section for details). After 72 hours the cells were fixed in 4% paraformaldehyde at room temperature for 10 min. They were subsequently permeabilized for 5 min in 0.5% Triton X-100 and blocked for 1 hr in 5% normal goat serum (NGS). […] The next day the coverslips were washed 3 times in PBS and incubated for 1 hour with secondary antibody (goat anti-rabbit Texas-red conjugated; from Jackson Immunoresearch; West Grove, Pa.) at a 1:250 dilution in 5% normal goat serum and 0.5 μg/ml of DAPI (4′,6-Diamidino-2-phenylindole). After 3 washes in PBS the coverslips were mounted with ProLong Gold anti-fade reagent from Molecular Probes (Eugene, Oreg.).
10 μl of 5 mg/ml MTT (Thiazolyl blue; Sigma) solution was added to each well of a 96-well plate. After 2 hours of incubation at 37° C., the medium was removed and the MTT was solubilized by the addition of 100 μl of acidic isopropanol (0.1N HCL) to each well. The absorbance was determined spectophotometrically at 570 nm.

Another data set has as its system advanced NSCLC. The experiment in a line: Randomized trial of carboplatin/paclitaxel with or without erlotinib in advanced NSCLC. The class given is in vivo, human.
Setting [4] is: single patients 1-9, one per line.
[5] abbreviates: multi-institutional phase II trial.

“And” between values parts separate entries of the source, which are not always exact repeats. Equal values may be shown once. “Also recorded” adds a separate entry of the source. Where only a bound is given, the exact number is not on record here.

Description for advanced NSCLC: Tumor specimens were analyzed from patients with advanced NSCLC treated on the randomized trial of carboplatin/paclitaxel with or without erlotinib.

As to `COc1cc2ncnc(Nc3ccc(F)c(Cl)c3)c2cc1OCCCN1CCOCC1` [Gefitinib], in data set [1] (of a total of 275 patients treated), the “patients identified as having significant clinical responses” value is given as 25 patients. In data set [1] (setting [4]), the “Overall Survival, from the beginning of gefitinib treatment to death” value is >14.0 mo and 12.9 mo and >21.4 mo and >7.8 mo and >4.3 mo and 17.9 mo and 18.8 mo; the Response result is on record as “Major; Improved bilateral; also recorded: Partial; improved lung; also recorded: Minor; improved pleural; also recorded: Partial; improved liver; also recorded: Major; improved lung”. Besides, the “median survival from the start of drug treatment” value in data set [1] (the 9 responder patients of Table 1) is over 18 months. Also, the “patients with dramatic clinical responses” value in data set [2] (chemotherapy-refractory NSCLC) is given as “approximately 10%”. Besides, the “side effects of treatment” value in data set [2] (generally believed consequence of EGFR inhibition in normal tissues) was “diarrhea and dermatitis”. For the same molecule, in data set [2] (setting [5]), the “response rate, Japanese patients” value is on record as 27.5% and the “response rate, predominantly European-derived population” value is reported as 10.4%.

As to `N.N.[Cl][Pt][Cl]` [cisplatin], in data set [3], the “resistance of EGFR-mutant lung cancer cells to induced cell death signals” value (from here on “resistance”) was “markedly increased resistance”.

With `COc1cccc2c1C(=O)c1c(O)c3c(c(O)c1C2=O)C[C@@](O)(C(=O)CO)C[C@@H]3O[C@H]1C[C@H](N)[C@H](O)[C@H](C)O1` [doxorubicin], in data set [3], the “resistance” value is on record as “markedly increased resistance”.

With `C#Cc1cccc(Nc2ncnc3cc(OCCOC)c(OCCOC)cc23)c1` [erlotinib], the “survival in the two treatment arms” value in the data set on advanced NSCLC is “equivalent survival”.

As for Fas-ligand, the “resistance” value in data set [3] was “markedly increased resistance”.

The values above are taken from patent publication US7964349B2, “Method to determine responsiveness of cancer to epidermal growth factor receptor targeting treatments” (The General Hospital Corporation, priority 2004, dated 2011).
